pIC50: −log10 of the molar value.
System: K-562 leukemia growth, % test/control
Assay: Anticancer human tumor K-562 cell line growth inhibition;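 also: spheroids exposed to compounds for 7 days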;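 as to viability, T/C: 100% = DMSO vehicle wells and lower values mean fewer viable cells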
Settings: spheroids with HUVEC and MSC; for pIC50: curve of first compound; for viability, T/C: stronger effect = lower value
Method in brief: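 Multicellular complex spheroids of tumor cells with human endothelial cells (HUVEC) and mesenchymal stem cells; the LSD1 inhibitor iadademstat was combined with standard-of-care or investigational agents. Top concentration at or near clinical Cmax, half-log dilutions; final DMSO ≤0.25%.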

[1] = second compound 0.1 µM, first compound 0.0316 µM
[2] = second compound 0.1 µM, first compound 0.1 µM
[3] = second compound 0.316 µM, first compound 0.0316 µM
[4] = second compound 0.316 µM, first compound 0.1 µM
[5] = second compound 1 µM, first compound 0.0316 µM
[6] = second compound 1 µM, first compound 0.1 µM
[7] = second compound 3.16 µM, first compound 0.0316 µM
[8] = second compound 3.16 µM, first compound 0.1 µM
[9] = second compound 10 µM, first compound 0.0316 µM
[10] = second compound 10 µM, first compound 0.1 µM

CC1(C)CCC(CN2CCN(c3ccc(C(=O)NS(=O)(=O)c4ccc(NCC5CCOCC5)c([N+](=O)[O-])c4)c(Oc4cnc5[nH]ccc5c4)c3)CC2)=C(c2ccc(Cl)cc2)C1 + NC1CCC(NC2CC2c2ccccc2)CC1
pIC50 (second compound 0.1 µM): 5.18 | pIC50 (second compound 0.316 µM): 5.18 | pIC50 (second compound 1 µM): 5.18 | pIC50 (second compound 3.16 µM): 5.16 | pIC50 (second compound 10 µM): 5.19 | viability, T/C [1]: 99.8% | viability, T/C [2]: 102% | viability, T/C (second compound 0.1 µM, first compound 0.316 µM): 101% | viability, T/C (second compound 0.1 µM, first compound 1 µM): 104% | viability, T/C (second compound 0.1 µM, first compound 3.16 µM): 109% | viability, T/C (second compound 0.1 µM, first compound 10 µM): 19.1% | viability, T/C [3]: 102% | viability, T/C [4]: 104% | viability, T/C (second compound 0.316 µM, first compound 0.316 µM): 104% | viability, T/C (second compound 0.316 µM, first compound 1 µM): 101% | viability, T/C (second compound 0.316 µM, first compound 3.16 µM): 110% | viability, T/C (second compound 0.316 µM, first compound 10 µM): 20% | viability, T/C [5]: 104% | viability, T/C [6]: 104% | viability, T/C (second compound 1 µM, first compound 0.316 µM): 107% | viability, T/C (second compound 1 µM, first compound 1 µM): 108% | viability, T/C (second compound 1 µM, first compound 3.16 µM): 110% | viability, T/C (second compound 1 µM, first compound 10 µM): 17.6% | viability, T/C [7]: 105% | viability, T/C [8]: 103% | viability, T/C (second compound 3.16 µM, first compound 0.316 µM): 104% | viability, T/C (second compound 3.16 µM, first compound 1 µM): 108% | viability, T/C (second compound 3.16 µM, first compound 3.16 µM): 106% | viability, T/C (second compound 3.16 µM, first compound 10 µM): 24.3% | viability, T/C [9]: 97.6% | viability, T/C [10]: 99.6% | viability, T/C (second compound 10 µM, first compound 0.316 µM): 99.8% | viability, T/C (second compound 10 µM, first compound 1 µM): 101% | viability, T/C (second compound 10 µM, first compound 3.16 µM): 101% | viability, T/C (second compound 10 µM, first compound 10 µM): 20.5%

CCN(c1cc(-c2ccc(CN3CCOCC3)cc2)cc(C(=O)NCc2c(C)cc(C)[nH]c2=O)c1C)C1CCOCC1 + NC1CCC(NC2CC2c2ccccc2)CC1
pIC50 (second compound 0.1 µM): < 5.52 | pIC50 (second compound 0.316 µM): < 5.52 | pIC50 (second compound 1 µM): < 5.52 | pIC50 (second compound 3.16 µM): < 5.52 | pIC50 (second compound 10 µM): 5.65 | viability, T/C (second compound 0.1 µM, first compound 0.00949 µM): 112% | viability, T/C (second compound 0.1 µM, first compound 0.03 µM): 107% | viability, T/C (second compound 0.1 µM, first compound 0.0949 µM): 106% | viability, T/C (second compound 0.1 µM, first compound 0.3 µM): 106% | viability, T/C (second compound 0.1 µM, first compound 0.949 µM): 106% | viability, T/C (second compound 0.1 µM, first compound 3 µM): 98.8% | viability, T/C (second compound 0.316 µM, first compound 0.00949 µM): 112% | viability, T/C (second compound 0.316 µM, first compound 0.03 µM): 109% | viability, T/C (second compound 0.316 µM, first compound 0.0949 µM): 107% | viability, T/C (second compound 0.316 µM, first compound 0.3 µM): 108% | viability, T/C (second compound 0.316 µM, first compound 0.949 µM): 105% | viability, T/C (second compound 0.316 µM, first compound 3 µM): 101% | viability, T/C (second compound 1 µM, first compound 0.00949 µM): 113% | viability, T/C (second compound 1 µM, first compound 0.03 µM): 112% | viability, T/C (second compound 1 µM, first compound 0.0949 µM): 106% | viability, T/C (second compound 1 µM, first compound 0.3 µM): 109% | viability, T/C (second compound 1 µM, first compound 0.949 µM): 105% | viability, T/C (second compound 1 µM, first compound 3 µM): 99.5% | viability, T/C (second compound 3.16 µM, first compound 0.00949 µM): 113% | viability, T/C (second compound 3.16 µM, first compound 0.03 µM): 110% | viability, T/C (second compound 3.16 µM, first compound 0.0949 µM): 107% | viability, T/C (second compound 3.16 µM, first compound 0.3 µM): 106% | viability, T/C (second compound 3.16 µM, first compound 0.949 µM): 104% | viability, T/C (second compound 3.16 µM, first compound 3 µM): 95% | viability, T/C (second compound 10 µM, first compound 0.00949 µM): 103% | viability, T/C (second compound 10 µM, first compound 0.03 µM): 101% | viability, T/C (second compound 10 µM, first compound 0.0949 µM): 93.7% | viability, T/C (second compound 10 µM, first compound 0.3 µM): 86% | viability, T/C (second compound 10 µM, first compound 0.949 µM): 69.4% | viability, T/C (second compound 10 µM, first compound 3 µM): 42.9%

Cn1ncnc1C1c2n[nH]c(=O)c3cc(F)cc(c23)NC1c1ccc(F)cc1 (stereo not given) + NC1CCC(NC2CC2c2ccccc2)CC1
pIC50 (second compound 0.1 µM): < 7.00 | pIC50 (second compound 0.316 µM): < 7.00 | pIC50 (second compound 1 µM): < 7.00 | pIC50 (second compound 3.16 µM): < 7.00 | pIC50 (second compound 10 µM): < 7.00 | viability, T/C (second compound 0.1 µM, first compound 0.000316 µM): 102% | viability, T/C (second compound 0.1 µM, first compound 0.001 µM): 97.6% | viability, T/C (second compound 0.1 µM, first compound 0.00316 µM): 101% | viability, T/C (second compound 0.1 µM, first compound 0.01 µM): 101% | viability, T/C [1]: 101% | viability, T/C [2]: 97% | viability, T/C (second compound 0.316 µM, first compound 0.000316 µM): 101% | viability, T/C (second compound 0.316 µM, first compound 0.001 µM): 102% | viability, T/C (second compound 0.316 µM, first compound 0.00316 µM): 102% | viability, T/C (second compound 0.316 µM, first compound 0.01 µM): 99% | viability, T/C [3]: 101% | viability, T/C [4]: 98.9% | viability, T/C (second compound 1 µM, first compound 0.000316 µM): 108% | viability, T/C (second compound 1 µM, first compound 0.001 µM): 102% | viability, T/C (second compound 1 µM, first compound 0.00316 µM): 99.7% | viability, T/C (second compound 1 µM, first compound 0.01 µM): 103% | viability, T/C [5]: 102% | viability, T/C [6]: 101% | viability, T/C (second compound 3.16 µM, first compound 0.000316 µM): 100% | viability, T/C (second compound 3.16 µM, first compound 0.001 µM): 103% | viability, T/C (second compound 3.16 µM, first compound 0.00316 µM): 104% | viability, T/C (second compound 3.16 µM, first compound 0.01 µM): 104% | viability, T/C [7]: 104% | viability, T/C [8]: 101% | viability, T/C (second compound 10 µM, first compound 0.000316 µM): 99.3% | viability, T/C (second compound 10 µM, first compound 0.001 µM): 99.6% | viability, T/C (second compound 10 µM, first compound 0.00316 µM): 101% | viability, T/C (second compound 10 µM, first compound 0.01 µM): 101% | viability, T/C [9]: 98.5% | viability, T/C [10]: 96.1%
